From publication PMC3606118, “Salvianolic Acid A, a Novel Matrix Metalloproteinase-9 Inhibitor, Prevents Cardiac Remodeling in Spontaneously Hypertensive Rats” (PLoS ONE, 2013)

Legend:
[1] = target: T1, MMP-9 CD (Homo sapiens, UniProt P14780, DEL217-390); experiment: MMP-9 inhibition assay (thiopeptolide, enzyme kinetic analysis); type: biochemical; details: for Ki: spectrophotometric enzyme kinetic assay, thiopeptolide substrate; for inhibition on MMP-9 CD: enzyme kinetic assay
T1 construct: corresponding to residues 107–216 and 391–444; made in house
T1 sequence (P14780 with tags, fused parts or gaps DEL217-390 limits assumed): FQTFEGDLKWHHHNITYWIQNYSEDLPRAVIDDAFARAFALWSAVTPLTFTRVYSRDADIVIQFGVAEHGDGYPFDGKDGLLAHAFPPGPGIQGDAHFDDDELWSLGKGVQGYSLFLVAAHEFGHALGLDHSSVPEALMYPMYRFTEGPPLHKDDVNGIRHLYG
Description: Phenolic acids at the indicated concentrations were incubated with the reaction mixtures contained MMP-9 CD (15 nmol/L) and 5,5′-dithiobis-(2-nitrobenzoic acid) (1 mmol/L) at 4°C for 30 min. The reaction was initiated by the addition of thiopeptolide (Ac-Pro-Leu-Gly-S-Leu-Leu-Gly-OEt). Hydrolysis of thiopeptolide was monitored at 412 nm using Benchmark Plus™ microplate spectrophotometer (Bio-Rad) at room temperature. Kinetic analysis of phenolic acids against MMP-9 CD was calculated using double reciprocal plots of 1/V versus 1/[thiopeptolide]. The slope of every double reciprocal plot is the Km ^app/Vmax of enzyme at different compound concentration. Secondary plot was drawn through Km ^app/Vmax versus compound concentration. Km ^app is apparent value of Km; Ki is inhibition constant; Ki was calculated using the equation Ki = [Km/Vmax][compound]/(Km ^app/Vmax –Km/Vmax).

[2] = target: T1, MMP-9 CD; experiment: Real time binding by surface plasmon resonance (Biacore); details: for Kd: steady state affinity fit model, immobilized MMP-9 CD, 25°C, read-out: equilibrium dissociation constant (KD); for binding on MMP-9 CD: surface plasmon resonance
Description: DNA fragments encoding the catalytic domain of MMP-9 (MMP-9 CD, corresponding to residues 107–216 and 391–444) were constructed and subcloned into a pET-15b vector (Novagen). […]. Surface plasmon resonance analysis was performed using Biacore 3000 (Biacore AB). In brief, MMP-9 CD protein (5.8 µmol/L) in 10 mmol/L sodium acetate buffer (pH 3.73) was covalently immobilized on the hydrophilic carboxymethylated dextran matrix of the CM5 sensor chip (BIAcore AB) using standard primary amine coupling procedure. Phenolic acid at various concentrations in HBS-EP running buffer (10 mmol/L HEPES pH 7.4, 150 mmol/L NaCl, 3.4 mmol/L EDTA and 0.005% surfactant P20) were injected at a constant flow rate of 30 µL/min at 25°C. All data were analyzed by BIAevaluation software and the sensorgrams were processed by automatic correction for nonspecific bulk refractive index effects.

Question: `O=C(/C=C/c1ccc(O)c(O)c1)O[C@H](Cc1ccc(O)c(O)c1)C(=O)O` [rosmarinic acid] was tested. Which Ki [1] did it give?
Answer: The Ki was 126 ± 8.73 µM.

Question: What about the Kd [2] of the same molecule?
Answer: The Kd was 10.7 µM.

Question: With `O=C(O)[C@H](O)Cc1ccc(O)c(O)c1` [danshensu] as the molecule, how does the “inhibition on MMP-9 CD” value [1] read?
Answer: The value was “Neither binding nor inhibition was found”.

Question: And the “binding on MMP-9 CD” value [2]?
Answer: The value was “Neither binding nor inhibition was found”.

Question: How did the Ki [1] turn out when `O=C(/C=C/c1ccc(O)c2c1[C@H](C(=O)O)[C@@H](c1ccc(O)c(O)c1)O2)O[C@H](Cc1ccc(O)c(O)c1)C(=O)O` [lithospermic acid] was run?
Answer: Its Ki is 324 ± 132 µM.

Question: And the Kd [2]?
Answer: Its Kd is 66.2 µM.

Question: For `O=C(/C=C/c1ccc(O)c2oc(-c3ccc(O)c(O)c3)cc12)O[C@H](Cc1ccc(O)c(O)c1)C(=O)O` [SalC, salvianolic acid C], which Ki [1] is on record?
Answer: Its Ki is 110 ± 33.1 µM.

Question: And the Kd [2]?
Answer: Its Kd is 1.13 µM.

Question: `O=Cc1ccc(O)c(O)c1` [protocatechualdehyde] was tested. Which “inhibition on MMP-9 CD” value [1] did it give?
Answer: Its value is “Neither binding nor inhibition was found”.

Question: And the “binding on MMP-9 CD” value [2]?
Answer: The value was “Neither binding nor inhibition was found”.
